Each structure is given as a SMILES string. ≈ marks a conversion by molar mass, not a printed value. Where two headings read alike, the source gives them in different places. A value given as a limit tells only on which side of the number the result lay.

The values that follow come from article PMC4180753, “Evaluation of Inhibitory Action of Novel Non β-Lactam Inhibitor against Klebsiella pneumoniae Carbapenemase (KPC-2)” (PLoS ONE, 2014).

For data set [1], the target named is T1, KPC-2 (Klebsiella pneumoniae, UniProt Q9F663). As to the kind of experiment: IC50 and Ki on purified KPC-2 (nitrocefin hydrolysis). Format: biochemical. Conditions: for IC50: IC50, 1 nM purified KPC-2, 5 minutes pre-incubation, 30°C, pH 7.0, nitrocefin substrate (so in the source). Details: inferred from Ni-NTA purification and the pQE-2 vector) (N); made in house; host or cells: E. coli BL21 (DE3). The procedure:
The 50% inhibitory concentration (IC50) was defined as the concentration of the inhibitor that inhibited hydrolytic activity of the enzyme by 50%.
The inhibition constant, Ki, was calculated from the IC50 value by applying the Cheng-Prusoff correction

Data set [2] deals with Klebsiella pneumoniae MTCC 432. As to the kind of experiment: MIC, susceptible MTCC strain. The class given is cell-based.
For data set [3], the system named is E. coli BL21 transformed with recombinant bla KPC-2 (pQE2-KPC-2). The data set can be described thus: microbe, parasite or virus in culture. Format: cell-based, Escherichia coli. Conditions: for MIC of the carbapenem in combination with screened inhibitors (ZINC01807204 and ZINC02318494) / MIC: BL21 (pQE2-KPC-2); for MIC of the carbapenem in combination with screened inhibitors (ZINC01807204 and ZINC02318494) / reduction in MIC of the carbapenem in combination with screened compounds (ZINC01807204 and ZINC02318494): inhibitors 4 µg/ml; for MIC: inhibitors at fixed concentration of 4 µg/ml; for reduction in MIC of the carbapenem in combination with screened compounds (ZINC01807204 and ZINC02318494): KPC-2 expressing BL21 cells. The procedure:
A carbapenem resistant clinical strain of K. pneumoniae (NP6), previously characterised in our lab was procured from Jawaharlal Nehru Medical College (JNMC), Aligarh. […] Escherichia coli (DH5α) and E. coli BL21 (DE3) were used for cloning and protein expression experiments respectively. Minimum inhibitory concentration (MIC) and Confocal Laser Scanning Microscopy (CLSM) experiments were conducted on E.coli (BL21) cells expressing recombinant KPC-2 β-lactamase.
(§1) The Minimum Inhibitory Concentrations (MIC) of recombinant BL21(DE3) cells harboring bla KPC-2 gene were determined by micro dilution method for different carbapenems alone and in combination with inhibitors (Clavulanic acid, Sulbactam, Tazobactam, ZINC01807204 and ZINC02318494) against BL21 control cells (cells with null vector). The recombinant E. coli cells were induced with IPTG prior to performing experiments. The antimicrobial agents, imipenem, meropenem, ertapenem, clavulanic acid, sulbactam and tazobactam were obtained from Sigma Aldrich (USA) and compounds ZINC01807204 and ZINC02318494 were procured from Vitas M (Netherlands). The inhibitors were taken at a fixed concentration of 4 µg/ml.

The test system of data set [4] is Klebsiella pneumoniae NP6 (clinical strain, KPC-2). As to the kind of experiment: microbe, parasite or virus in culture. Format: cell-based.
Data set [5] concerns E. coli BL21 (Null plasmid). As to the kind of experiment: microbe, parasite or virus in culture. Format: cell-based. Conditions: Escherichia coli, inhibitors at fixed concentration of 4 µg/ml. The procedure:
as §1

The subject of data set [6] is E. coli BL21 transformants harbouring bla KPC-2. As to the kind of experiment: CLSM Live/Dead cell staining (PI/SYTO 9). The class given is cell-based, Escherichia coli. Conditions: 4 hours. The procedure: The control was taken without any drug. The media was inoculated and incubated at 37^οC for 4 hours. The media was removed and dishes were gently washed with MOPS (pH 7.0) to wash off extra media. Cells were then stained with propidium iodide (PI) and SYTO 9 (1∶1) for one hour. The fluorescence emission was observed using confocal scanning laser microscope FluoView FV1000 (Olympus, Tokyo, Japan). The optimal excitation wavelengths were […] and the optimal emission wavelengths were 500 and 610 nm, respectively. The images were obtained from atleast three randomly picked positions. The images of the control and in presence of known as well as novel inhibitors were averaged and compared.

The nature of data set [7]: Solubility observed in the inhibition assay. Conditions: at higher concentrations; reason IC50 and Ki could not be determined. Format: physicochemical.
The target in data set [8] is T1, KPC-2. The conditions noted are these: nitrocefin as reporter substrate of KPC-2.
Where [9] appears, read: MTCC432, MTCC 432, inhibitors at fixed concentration of 4µg/ml, read-out: MIC.
Setting [10] is: sub-MIC meropenem in combination with the inhibitor (4 µg/ml).

T1 sequence (Q9F663 25-293 limits assumed): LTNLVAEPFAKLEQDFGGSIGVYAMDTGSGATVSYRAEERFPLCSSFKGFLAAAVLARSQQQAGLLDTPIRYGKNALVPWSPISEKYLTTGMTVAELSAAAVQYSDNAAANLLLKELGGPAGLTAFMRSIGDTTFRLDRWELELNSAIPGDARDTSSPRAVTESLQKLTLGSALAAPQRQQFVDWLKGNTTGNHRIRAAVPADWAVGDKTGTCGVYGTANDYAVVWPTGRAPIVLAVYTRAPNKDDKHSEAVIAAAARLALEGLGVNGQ

Usually Ki stands for a measure of affinity in units of concentration, obtained from inhibition or displacement. A high value points to a looser hold on the target. A word on the IC50: it is the concentration that inhibits the measured activity by half. A high value points to lower potency. At KPC-2 [1], `O=C(O)[C@H]1/C(=C/CO)O[C@@H]2CC(=O)N21` [Clavulanic acid] registered a Ki of 30 µM and an IC50 of 137 µM.
With `C[C@@H](O)[C@H]1C(=O)N2C(C(=O)O)=C(S[C@@H]3CN[C@H](C(=O)Nc4cccc(C(=O)O)c4)C3)[C@H](C)[C@H]12` [Ertapenem, ertapenem], the MIC in data set [2] (setting [9]) was 0.0625 µg/mL (≈ 0.131 µM); in data set [3] it was no less than 128 µg/mL; in data set [3] (Escherichia coli) it was 128 µg/mL; in data set [4], no less than 256 µg/mL; in data set [5], 0.25 µg/mL. In addition, in data set [3], the “MIC of the carbapenem in combination with screened inhibitors (ZINC01807204 and ZINC02318494)” value amounted to 16 µg/mL. Further, in data set [3], the “reduction in MIC of the carbapenem in combination with screened compounds (ZINC01807204 and ZINC02318494)” value (“reduction in MIC of the carbapenem” for short) stood at 8 fold.
Take `C[C@@H](O)[C@H]1C(=O)N2C(C(=O)O)=C(SCCN=CN)C[C@H]12` [Imipenem, imipenem]: the MIC in data set [2] (setting [9]) is 0.0625 µg/mL (≈ 0.209 µM); in data set [3] it was no less than 64 µg/mL; in data set [3] (Escherichia coli) it was 64 µg/mL; in data set [4], no less than 256 µg/mL; in data set [5], 0.25 µg/mL. For the same molecule, the “MIC of the carbapenem in combination with screened inhibitors (ZINC01807204 and ZINC02318494)” value in data set [3] stood at 16 µg/mL. Moreover, the “reduction in MIC of the carbapenem” value in data set [3] is “four fold”.
As to `C[C@@H](O)[C@H]1C(=O)N2C(C(=O)O)=C(S[C@@H]3CN[C@H](C(=O)N(C)C)C3)[C@H](C)[C@H]12` [Meropenem, meropenem], the MIC in data set [2] (MTCC432) was 0.125 µg/mL (≈ 0.326 µM); in data set [3], no less than 64 µg/mL; in data set [3] (Escherichia coli) it was 64 µg/mL; in data set [4], no less than 256 µg/mL; in data set [5], 0.125 µg/mL. In data set [6] (sub-MIC concentration of meropenem alone), the “cells green with normal cell membranes” value is 60–70%. For the same molecule, the “MIC of the carbapenem in combination with screened inhibitors (ZINC01807204 and ZINC02318494)” value in data set [3] was determined as 8 µg/mL. The “reduction in MIC of the carbapenem” value in data set [3] was 8 fold and eight fold.
On KPC-2 [1], `CC1(C)[C@H](C(=O)O)N2C(=O)C[C@H]2S1(=O)=O` [Sulbactam] displayed a Ki of 23.2 µM and an IC50 of 106 µM.
On to `C[C@]1(Cn2ccnn2)[C@H](C(=O)O)N2C(=O)C[C@H]2S1(=O)=O` [Tazobactam], for which the “cells green with normal cell membranes” value in data set [6] (setting [10]) was 60–70%. For the same molecule, at KPC-2 [1], the affinity corresponds to a Ki of 21.6 µM and half-maximal inhibition (IC50) was put at 98.8 µM.
Turning to `CC(=O)Nc1ccc(S(=O)(=O)Nc2ccccc2NS(=O)(=O)c2ccc(NC(C)=O)cc2)cc1` [ZINC01807204], the “cells binding PI and Syto 9 (yellowish orange, affected)” value in data set [6] (setting [10]) is recorded as 90–95%. Also, on KPC-2 [1], the Ki came to 43.8 µM and it took 200 µM to reach half-maximal inhibition (IC50).
Regarding `CC(C)[C@H](NS(=O)(=O)c1ccc2c(c1)Cc1cc(S(=O)(=O)N[C@H](C(=O)O)C(C)C)ccc1-2)C(=O)O` [ZINC02318494], the “cells binding PI and Syto 9 (yellowish orange, affected)” value in data set [6] (setting [10]) was 90–95%. For the same molecule, the solubility result in data set [7] is “poor solubility at higher concentrations”.
By Km is commonly meant the concentration of substrate that gives half-maximal velocity. As for `O=C(Cc1cccs1)N[C@@H]1C(=O)N2C(C(=O)O)=C(/C=C/c3ccc([N+](=O)[O-])cc3[N+](=O)[O-])CS[C@H]12` [nitrocefin], the Km on KPC-2 [8] amounted to 28 ± 6 µM.
